# What was measured:
# [1] = tested on: Cord blood-derived CD34 cells; experiment: Short-term liquid culture of CD34 cells: cell number, CD34 cells, colony forming cells; format: cell-based, human
# Experimental: The interphase layer of mononuclear cells were collected, washed three times with Ca/Mg free phosphate buffered saline containing 1% bovine serum albumin (BSA). The cells were incubated for 30 min. at 4° C. with murine monoclonal anti CD34 antibody (0.5 μg/10^6 mononuclear cells) and thereafter isolated using the miniMACS apparatus (Miltenyi-Biotec, Bergisch, Gladbach, Germany) according to the manufacturer's protocol.
# Culture procedures: For the expansion of progenitor cells, CD34^+ enriched fractions or unseparated mononuclear cells were seeded at about 1-3×10^4 cells/ml in either alpha minimal essential medium containing 10% preselected fetal calf serum (FCS) (both from GIBCO, Grand Island, N.Y.), or serum-free medium (Progenitor-34 medium, Life Technologies, Grand Island, N.Y.). The media were supplemented with a mixture of growth factors and transition metal chelators. The cultures were incubated at 37° C. in an atmosphere of 5% CO2 in air with extra humidity. Half of the medium was changed weekly with fresh medium containing all the supplements.
# Cloning potential evaluations: The cloning potential of cells developed in the liquid culture was assayed, at different intervals, in semi-solid medium. The cells were washed and seeded in 35 mm dishes in methylcellulose containing alpha medium supplemented with recombinant growth factors (SCF, G-CSF, GM-CSF and EPO). Following 2 weeks incubation, the cultures were scored with an inverted microscope. Colonies were classified as blast, mixed, erythroid, myeloid, and megakaryocytic, according to their cellular composition.
# Immunofluorescence staining: At different intervals, cells from the liquid cultures were assayed for CD34 antigen. Aliquots were harvested, washed and incubated on ice with FITC-labeled anti CD45 monoclonal antibody and either PE-labeled anti CD34 (HPCA-2) monoclonal antibody or PE-labeled control mouse Ig. After incubation, red cells were lysed with lysing solution, while the remaining cells were washed and analyzed by flow cytometer.
# Flow cytometry: Cells were analyzed and sorted using FACStarPlus flow cytometer (Becton-Dickinson, Immunofluorometry systems, Mountain View, Calif.). Cells were passed at a rate of 1,000 cells/second through a […] nozzle, using saline as the sheath fluid. A 488 nm argon laser beam at 250 mW served as the light source for excitation. […] The PMTs was set at the appropriate voltage. Logarithmic amplification was applied for measurements of fluorescence and linear amplification—for forward light scatter. At least 10^4 cells were analyzed.
# Cord blood-derived CD34 cells were plated in liquid culture in the presence of: FL—50 ng/ml, SCF—50 ng/ml, IL-6—50 ng/ml, with or without IL-3—20 ng/ml, with or without TEPA—10 μM. On day 7, the percentage of CD34 cells and the total cell number were determined. Aliquots equivalent to 1×10^3 initiating cells were assayed on days 0 and 7 for colony forming cells (CFU) by cloning in semi-solid medium. CFU expansion represents the ratio of CFU present on day 7 to CFU present on day 0.
# [2] = tested on: Murine erythroleukemia cells (MEL); experiment: HMBA-induced differentiation and growth of erythroleukemic cells; format: cell-based, mouse; settings: day 3 (Table 2)
# Experimental: Mouse erythroleukemic cells (MEL): MEL cells are erythroblast like cells. Following treatment with several chemicals (differentiation inducers) the cells undergo erythroid differentiation and accumulate hemoglobin. […] At day 3 of the culture, the total number of cells and the percentage of hemoglobin-containing cells were determined (Table 2).
# On day 3, total cell number and hemoglobin containing (benzidine positive) cells were determined.
# [3] = high doses of early cytokines or early- and late-acting cytokines (Table 1, FIG. 3)
compound,measurement,setting,value
"NCCNCCNCCNCCN [TEPA, tetraethylenepentamine]",Cells/ml (×10^4),"[1]; TEPA 10 μM, without IL-3, FL, SCF, IL-6 50 ng/ml each, day 7",2 ×10^4 cells/ml
same,total cell number,[1]; cultures supplemented with both early and late cytokines (FIG. 3),marginal inhibition
same,clonability,[1]; [3],significantly increased
same,percentage of CD34^+ cells,[1]; [3],significantly increased
same,cell clonability,"[1]; low doses of early-acting cytokines, colonies in semi-solid medium (FIG. 1)",significant increase
same,total cell number,"[1]; low doses of early-acting cytokines, compared to cytokines only (FIG. 2)",significant increase
same,number of CD34^+ cells,"[1]; low doses of early-acting cytokines, flow cytometry (FIG. 2)",significant increase
same,HMBA-induced differentiation of MEL cells,[2],inhibited
